Results on 3 compounds are retold here after patent publication US4833162A, “Substituted benzeneacetonitriles and their use as calcium channel blockers” (American Cyanamid Company, priority 1988, dated 1989).

For experiment [1], the system named is thoracic aortae rings (potassium chloride-induced contraction). As to the kind of experiment: Calcium antagonist Test 1: inhibition of potassium chloride-induced contraction of rat thoracic aortic rings. The class given is cell-based, Sprague-Dawley rat. As to conditions: 50 mM potassium chloride, 37° C., active if >50% inhibition at 3×10^-5 M, read-out: bath concentration at which more than 50% of the potassium chloride-induced contraction was inhibited. On the procedure:
Male Sprague-Dawley rats, weighing 300-470 g, were killed and their thoracic aortae were removed immediately, cleared of blood, fat and connective tissue and cut into rings 1-2 mm wide. […] The bath media was maintained at 37° C. and aerated with 5% carbon dioxide in oxygen.
At the start of the test, the aortic rings were stretched to an initial tension of one gram. The tissues were then allowed to equilibrate for 90 minutes until they reached a steady tension. Changes in tension were recorded using a force displacement transducer coupled to a Grass polygraph.
The potassium chloride-induced contractions were repeated until a constant tension was obtained. These initial contractions served as a control for subsequent contractions induced in the presence of a test compound.
Each compound was dissolved in ethanol to a stock concentration of 10^-2 M. The ability of these compounds to inhibit a potassium chloride-induced contraction was determined by comparing the tension developed in the presence of each compound versus the control.

In the next experiment the test system is rat. Kind of experiment: Test 2: antihypertensive activity in the rat (MABP and heart rate). The class given is in vivo. Conditions: for antihypertensive activity (comparison in words): Verapamil 50 mg/kg versus 1-methylethyl substituted thio compound 100 mg/kg; for heart rate (HR) / mean arterial blood pressure (MABP): average two rats. On the procedure: Antihypertensive activity was measured in the rat by the mean arterial blood pressure (MABP) in millimeters of mercury and heart rate (HR) in beats per minute (average two rats).

A further experiment relates to renal hypertensive dogs. As to the kind of experiment: Test 3: antihypertensive activity in renal hypertensive dogs. The class given is in vivo, dog. How it is done:
Antihypertensive activity was also measured in renal hypertensive dogs.

Where a name gives a salt, the structure may show the parent alone.

For the compound `COc1ccc(CCN(C)CCSC(C#N)c2ccc(OC)c(OC)c2)cc1OC` (stereo not drawn) [unsubstituted thio compound, A-[[2-[[2(3,4-dimethoxyphenyl)ethyl]methylamino]ethyl]thio]-3,4-dimethoxy-A-benzeneacetonitrile monohydrochloride], the IC50 in experiment [1] stood at 3 µM.

For the compound `COc1ccc(CCN(C)CCCC(C#N)(c2ccc(OC)c(OC)c2)C(C)C)cc1OC` (stereo not drawn) [Verapamil, A-[3-[[2-(3,4-dimethoxyphenyl)ethyl]methylamino]propyl]-3,4-dimethoxy-A-(1-methylethyl) benzeneacetonitrile, reference compound], the “antihypertensive activity (comparison in words)” value in the experiment with rat was “comparable antihypertensive activity”. In addition, in the experiment with rat (dose of 50 mg/kg), the “heart rate (HR)” value is 350 beats per minute and the “mean arterial blood pressure (MABP)” value is 93 millimeters of mercury. For the same compound, the “increase in HR of” value in the experiment with renal hypertensive dogs (dose of 10 mg/kg) was determined as 75. Besides, the “drop in blood pressure” value in the experiment on renal hypertensive dogs (dose of 10 mg/kg, over a four hour period) was 30 millimeters of mercury.

For `COc1ccc(CCN(C)CCSC(C#N)(c2ccc(OC)c(OC)c2)C(C)C)cc1OC` (stereo not drawn) [1-methylethyl substituted thio compound, A-[[2-[[2-(3,4dimethoxyphenyl)ethyl]methylamino]ethyl]thio]-3,4-dimethoxy-A-(1-methylethyl) benzeneacetonitrile monohydrochloride], the IC50 in experiment [1] worked out at 0.8 µM. In addition, in the experiment with rat, the “antihypertensive activity (comparison in words)” value was “comparable antihypertensive activity”. Also, in the experiment with rat (dose of 100 mg/kg), the “heart rate (HR)” value worked out at 320 beats per minute and the “mean arterial blood pressure (MABP)” value was 97 millimeters of mercury. Further, in the experiment on renal hypertensive dogs (dose of 20 mg/kg), the “increase in HR to” value is given as “above 153”. The “drop in blood pressure” value in the experiment with renal hypertensive dogs (dose of 20 mg/kg, over a two hour period) is 45 millimeter.
